Laboratory results reported in patent publication US12180192B2, “Modulators of THR-β and methods of use thereof” (ALIGOS THERAPEUTICS, INC., priority 2019, dated 2024).

Key:
Format in all cases: cell-based
[1] = test system: CPT1A gene expression in Huh-7 cells; experiment: Huh-7 differential gene expression, CPT1A RT-qPCR (Assay 3); conditions: Homo sapiens, Huh-7, 24 h, Table 6, Huh-7 cells, CPT1A, 24 hr treatment; for EC50: read-out: Activity category Assay 3 EC50; for Emax: read-out: Activity category Assay 3 Emax
Summary of the method: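 Huh-7 cells in DMEM with 10% resin-stripped (TH-depleted) FBS were treated 24 hr with compounds at 0.1% DMSO, in biological duplicates. CPT1A mRNA was measured by TaqMan RT-qPCR against ACTB and TFG and quantified by 2-ΔΔCt. EC50 and Emax came from four-parameter logistic fits with no top constraint.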

THR beta = molecular target: T1, THR beta (Homo sapiens, UniProt P10828); experiment: HEK293T THR beta/RXR luciferase reporter assay (Assay 2); conditions: for Emax: HEK-293T, Table 5, Assay 2, THRβ, read-out: Activity category Assay 2 THRβ (Emax); for EC50: THR-beta, HEK293T reporter assay, read-out: Activity category Assay 2 (EC50, THR-beta agonist)
T1 construct: expressed in transfected cells; host or cells: HEK293T (ATCC CRL-3216)
T1 sequence (P10828 1-461): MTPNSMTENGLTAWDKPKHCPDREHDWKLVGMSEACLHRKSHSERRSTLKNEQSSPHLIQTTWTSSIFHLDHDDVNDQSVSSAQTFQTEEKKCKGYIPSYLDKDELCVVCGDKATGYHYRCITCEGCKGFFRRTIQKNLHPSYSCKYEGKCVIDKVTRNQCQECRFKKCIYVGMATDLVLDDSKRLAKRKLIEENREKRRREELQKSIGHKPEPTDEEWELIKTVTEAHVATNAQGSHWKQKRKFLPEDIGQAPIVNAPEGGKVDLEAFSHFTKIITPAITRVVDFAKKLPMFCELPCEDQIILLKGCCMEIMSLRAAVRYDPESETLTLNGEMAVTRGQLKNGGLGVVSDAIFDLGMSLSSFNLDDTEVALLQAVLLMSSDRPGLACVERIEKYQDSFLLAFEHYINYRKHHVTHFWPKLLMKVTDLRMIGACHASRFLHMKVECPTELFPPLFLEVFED
T1 sequence (P19793 1-462 partner): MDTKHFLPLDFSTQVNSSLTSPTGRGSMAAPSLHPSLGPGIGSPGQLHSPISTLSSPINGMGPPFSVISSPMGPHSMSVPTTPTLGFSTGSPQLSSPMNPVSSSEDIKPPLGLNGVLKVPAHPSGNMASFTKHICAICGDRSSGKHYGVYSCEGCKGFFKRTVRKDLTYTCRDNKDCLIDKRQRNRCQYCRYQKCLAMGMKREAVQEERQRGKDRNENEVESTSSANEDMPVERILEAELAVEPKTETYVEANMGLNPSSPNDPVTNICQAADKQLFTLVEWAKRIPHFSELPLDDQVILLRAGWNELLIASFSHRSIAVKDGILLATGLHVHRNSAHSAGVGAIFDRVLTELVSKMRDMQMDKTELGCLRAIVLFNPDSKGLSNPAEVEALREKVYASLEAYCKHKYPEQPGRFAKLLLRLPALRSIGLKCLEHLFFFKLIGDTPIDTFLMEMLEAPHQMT
Summary of the method: (§1)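 HEK293T cells transiently transfected with TRE-luciferase reporter, RXR, and THR alpha or THR beta plasmid; ten five-fold compound dilutions from DMSO added for 18-24 h. One-Glo luminescence read; percent agonism normalized between negative and positive controls.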

THR alpha = molecular target: T2, THR alpha (Homo sapiens, UniProt P10827); experiment: HEK293T THR alpha/RXR luciferase reporter assay (Assay 2); conditions: Assay 2; for Emax: HEK-293T, Table 5, THRα, read-out: Activity category Assay 2 THRα (Emax); for EC50: Table 4, THR-alpha, read-out: Activity category Assay 2 (EC50, THR-alpha agonist activity)
T2 construct: expressed in transfected cells; host or cells: HEK293T (ATCC CRL-3216)
T2 sequence (P10827 1-410 isoform P10827-2): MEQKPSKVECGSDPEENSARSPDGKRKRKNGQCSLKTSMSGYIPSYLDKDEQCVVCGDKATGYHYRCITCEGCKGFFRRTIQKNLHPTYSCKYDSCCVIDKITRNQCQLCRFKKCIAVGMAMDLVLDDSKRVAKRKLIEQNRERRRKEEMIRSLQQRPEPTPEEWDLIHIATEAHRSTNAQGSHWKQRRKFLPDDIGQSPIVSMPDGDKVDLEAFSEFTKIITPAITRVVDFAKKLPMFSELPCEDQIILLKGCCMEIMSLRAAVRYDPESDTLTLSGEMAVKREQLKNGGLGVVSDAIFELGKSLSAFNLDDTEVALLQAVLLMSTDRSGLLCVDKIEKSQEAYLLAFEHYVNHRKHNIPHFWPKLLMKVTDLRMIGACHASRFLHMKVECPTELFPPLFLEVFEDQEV
T2 sequence (P19793 1-462 partner): T1 sequence (P19793 1-462 partner)
Summary of the method: as §1

| SMILES | EC50 [1] [nM] | Emax (THR beta) [%] | EC50 (THR beta) [nM] | Emax (THR alpha) [%] | EC50 (THR alpha) [nM] | Emax [1] [%] |
| --- | --- | --- | --- | --- | --- | --- |
| CC1(C)CC(c2cc(Oc3c(Cl)cc(-n4nc(N)c(=O)[nH]c4=O)cc3Cl)n[nH]c2=O)C1 [Compound 89, 6-Amino-2-(3,5-dichloro-4-((5-(3,3-dimethylcyclobutyl)-6-oxo-1,6-dihydropyridazin-3-yl)oxy)phenyl)-1,2,4-triazine-3,5(2H,4H)-dione] | 100 to 1000 | 50 to 75 | – | < 50 | 1000 to 10000 | > 75 |
| CC(C)c1c[nH]c2ccc(Oc3c(Cl)cc(-n4nc(C#N)c(=O)[nH]c4=O)cc3Cl)cc12 [Compound 1, 2-[3,5-dichloro-4-[(3-isopropyl-1H-indol-5-yl)oxy]-phenyl]-3,5-dioxo-4H-1,2,4-tri-azine-6-carbonitrile] | 100 to 1000 | > 75 | 50 to 250 | > 75 | 250 to 1000 | > 75 |
| CC(C)c1c[nH]c2ccc(Oc3c(Cl)cc(-n4nc(C#N)c(=O)[nH]c4=O)cc3Cl)nc12 [Compound 18] | > 100 | > 75 | 1000 to 10000 | 50 to 75 | 1000 to 10000 | > 75 |
| Nc1nn(-c2cc(Cl)c(Oc3cc(C4Cc5ccccc54)c(=O)[nH]n3)c(Cl)c2)c(=O)[nH]c1=O (stereo not shown) [Compound 158] | > 100 | 50 to 75 | 50 to 250 | < 50 | 1000 to 10000 | < 50 |
| Cc1cc(-n2nc(C#N)c(=O)[nH]c2=O)cc(C)c1Cc1ccc2[nH]cc(C(C)C)c2n1 [Compound 31, 2-[4-[(3-isopropyl-1H-pyrrolo[3,2-b]pyridin-5-yl)methyl]-3,5-dimethyl-phenyl]-3,5-dioxo-1,2,4-triazine-6-carbonitrile] | 100 to 1000 | > 75 | 250 to 1000 | > 75 | 1000 to 10000 | > 75 |

More lines, main results first:

| EC50 [1] [nM] | Emax (THR beta) [%] | EC50 (THR beta) [nM] | Emax (THR alpha) [%] | EC50 (THR alpha) [nM] | SMILES | Emax [1] [%] |
| --- | --- | --- | --- | --- | --- | --- |
| 100 to 1000 | < 50 | 50 to 250 | < 50 | 1000 to 10000 | Cc1ccc(-c2cc(Oc3c(Cl)cc(-n4nc(N)c(=O)[nH]c4=O)cc3Cl)n[nH]c2=O)cc1C [Compound 112] | > 75 |
| < 100 | > 75 | – | > 75 | < 50 | Cc1cc(-n2nc(N)c(=O)[nH]c2=O)cc(C)c1Cc1ccc(O)c(-c2ccccc2)n1 [Compound 43, 6-amino-2-[4-[(5-hydroxy-6-phenylpyridin-2-yl)-methyl]-3,5-dimethylphenyl]-4H-1,2,4-triazine-3,5-dione] | > 75 |
| < 100 | 50 to 75 | 250 to 1000 | < 50 | 1000 to 10000 | Nc1nn(-c2cc(Cl)c(Oc3cc(C4CC5(CC5)C4)c(=O)[nH]n3)c(Cl)c2)c(=O)[nH]c1=O [Compound 93] | 50 to 75 |
| 100 to 1000 | 50 to 75 | 50 to 250 | < 50 | > 10000 | Nc1nn(-c2cc(Cl)c(Oc3n[nH]c(=O)cc3-c3ccc4c(c3)CCCC4)c(Cl)c2)c(=O)[nH]c1=O [Compound 72-A, 6-amino-2-(3,5-dichloro-4-[[6-oxo-4-(5,6,7,8-tetrahydronaphthalen-2-yl)-1H-pyridazin-3-yl]oxy]phenyl)-4H-1,2,4-triazine-3,5-dione] | > 75 |
| 100 to 1000 | 50 to 75 | 50 to 250 | < 50 | 1000 to 10000 | Nc1nn(-c2cc(Cl)c(Oc3cc(C4CC5(CCC5)C4)c(=O)[nH]n3)c(Cl)c2)c(=O)[nH]c1=O [Compound 94] | 50 to 75 |
